Experimental data: patent US20200246331A1, “Pharmaceutical combinations and their use” (Novartis AG, priority 2015, published 2020)
pIC50: −log10 of the molar value. Like-named read-outs stand apart in the source and are kept apart here.

Experiments:
Format in all cases: cell-based
[1] = tested on: Mel285 UM cell line; assay: 72 hr CellTiter-Glo cell proliferation assay, Mel285; conditions: read-out: IC50 single agent activity
Experimental: (§1) Next, luminescence was recorded using the plate reader.

[2] = tested on: UM 92.1 cell line; assay: 72 hr CellTiter-Glo cell proliferation assay, 92.1; conditions: for pIC50: 92.1 cell line, 72 hr CTG, read-out: IC50 single agent activity
Experimental: as §1
The percent growth inhibition and excess inhibition were analysed using the Chalice software (CombinatoRx, Cambridge Mass.). […] All remaining points in the grids display results from a combination of the two inhibitors that correspond to the single agent concentrations denoted on the two axes. Data analysis of cell proliferation was performed using Chalice Analyser as described in (Lehar et al. 2009). Excess inhibition was calculated using the Loewe synergy model which measures the effect on growth relative to what would be expected if two drugs behave in a dose additive manner. Positive numbers represent areas of increasing synergy.

[3] = tested on: OMM2.5 UM cell line; assay: 72 hr CellTiter-Glo cell proliferation assay, OMM2.5; conditions: read-out: IC50 single agent activity
Experimental: as §1

[4] = tested on: Mel202 UM cell line; assay: 72 hr CellTiter-Glo cell proliferation assay, Mel202; conditions: read-out: IC50 single agent activity
Experimental: as §1

[5] = tested on: Mel270 UM cell line; assay: 72 hr CellTiter-Glo cell proliferation assay, Mel270; conditions: read-out: IC50 single agent activity
Experimental: as §1

SMILES	pIC50 ([1]; Mel285 cell line, 72 hr CTG)	pIC50 [2]	pIC50 ([3]; OMM2.5 cell line, 72 hr CTG)	pIC50 ([4]; Mel202 cell line, 72 hr CTG)	pIC50 ([5]; Mel270 cell line, 72 hr CTG)	pIC50 ([1]; 72 h)	pIC50 ([3]; 72 h)	pIC50 ([4]; Mel202, 72 h)	pIC50 ([5]; 72 h)	efficacy as single agent compared with the other PKC inhibitor ([2]; one UM cell line, single agent)
COc1cc2c(cc1OC(C)C)[C@H](c1ccc(Cl)cc1)N(c1ccc(N(C)C[C@H]3CC[C@H](N4CCN(C)C(=O)C4)CC3)cc1)C(=O)C2 [Compound A, (S)-1-(4-Chloro-phenyl)-7-isopropoxy-6-methoxy-2-(4-{methyl-[4-(4-methyl-3-oxo-piperazin-1-yl)-trans-cyclohexylmethyl]-amino}-phenyl)-1,4-dihydro-2H-isoquinolin-3-one]	5.90	6.18	5.59	6.40	6.44					
COc1ncc(-c2nc3c(n2C(C)C)[C@H](c2ccc(Cl)cc2)N(c2cc(Cl)cn(C)c2=O)C3=O)c(OC)n1 [Compound B, (S)-5-(5-Chloro-1-methyl-2-oxo-1,2-dihydro-pyridin-3-yl)-6-(4-chloro-phenyl)-2-(2,4-dimethoxy-pyrimidin-5-yl)-1-isopropyl-5,6-dihydro-1H-pyrrolo[3,4-d]imidazol-4-one]		7.07				6.78	6.60	7.22	7.47	
CC1(N)CCN(c2cccnc2NC(=O)c2nc(-c3ncccc3C(F)(F)F)cnc2N)CC1 [Compound D, 3-amino-N-(3-(4-amino-4-methylpiperidin-1-yl)pyridin-2-yl)-6-(3-(trifluoromethyl)pyridin-2-yl)pyrazine-2-carboxamide]										more effective as a single agent
